Measurements taken from publication PMC6581923 (Journal of Molecular Neuroscience, 2018).
Read-outs that look alike come from different tables or passages of the source.

Key:
[1] = Efficiency of Traversing Eye to Retina (EtE) of FITC labeled peptides given in eye drops; type: in vivo, rat (male)
Description: In order to trace the drugs, peptides were labeled with fluorescein isothiocyanate (FITC) using a FITC Protein Labeling Kit from ChangRu Biotech Ltd. (Guangzhou, China) according to the manufacturer’s protocol. After the labeling reaction, gel filtration was used to remove the free FITC. In order to determine the amount of the residual free FITC, the peptides were submitted to ultrafiltration using Amicon Ultra – 0.5 mL (Millipore, USA) with a molecular sieve of 2000 Da. After centrifugation (1000×g, 10 min) the peptide was subjected to fluorescence measurements performed with the multi-wavelength scanner Victor 3 (GE, USA) at the excitation of 495 nm and the emission of 520 nm. Protein concentrations were determined using the K4000 Bradford Protein Quantification Kit (Innovative, Guangzhou, China). The labeling efficiency was calculated using the following formula: label efficiency (LE) = fluorescence value (FV)/peptide mass (mol) (PM), representing the fluorescence intensity (AU) per mol of peptide (mol).
Male rats with body weight from 160 to 180 g were purchased from the Medical and Experimental Animal Center (Guangdong, China). Rats were randomly assigned to one of the experimental groups (7 rats per group) and subjected to eye drops with FITC labeled peptides (100 nmol/kg) and PBS as control. Rats were sacrificed by anesthesia 2 h after the eye drop administration and the retina was separated, weighed, washed three times with PBS and divided into two parts. One part was prepared on the glass slide with glycerin and subjected to fluorescence microscopic observation of FITC with 495 nm excitation/520 nm emission. All images, focused on the left upper regions of the retina, were taken with 500 ms exposure time. The other part of the retina was subjected to grinding and ultrasonication in PBS at a concentration of 100 mg weight tissue per milliliter of PBS. The supernatant was collected by centrifugation and the fluorescence intensity in the supernatant (100 uL) was determined. The valid fluorescence intensity (FI) for each sample treated with FITC labeled peptide was corrected by subtracting the fluorescence value of the sample treated with PBS, which was used as a blank background. The Efficiency of Traversing Eye to Retina (EtE) was expressed as the percentages of the FITC labeled peptide mass in the retina to the total FITC labeled peptide mass. The EtE was calculated using the following formula: EtE = tFI/LE/PW × 100% (tFI presents the fluorescence intensity of retina (arbitration unit, AU); LE presents the label efficiency of each peptide which has been determined above; PW presents the peptide mass (mole)).
Fig. 1 The efficiency of FITC labeled PACAP/PACAP-TAT (a, b) and VIP/VIP-TAT (c, d) traversing to retina given in eye drops. The retina was separated 2 h after the eye drops and submitted to the fluorescence microscopic observation of FITC fluorescence signal (A, C) and the calculation of Efficiency of Traversing Eye to Retina (EtE) (b, d). The data are means ± SEM of four experiments

[2] = tested on: PAC1 receptor; design: method as in 2 sources, one per row (each row's own in cited_ref): ref Yu et al. [2014] ||| ref Vaudry et al. [2009]; settings: vs VIP, ref Yu et al. [2014], cited from earlier work
Text: The retinoprotective effects of PACAP are well-documented and have been proven in different injury models, such as excitotoxic, ischemic, UV light-induced, traumatic, diabetic and oxygen-induced injuries (Atlasz et al. [2008], [2011], [2016]; Kvarik et al. [2016]; Shioda et al. [2016]; Szabadfi et al. [2016]; Vaczy et al. [2016]). […] P ...

SMILES: CC[C@H](C)[C@H](NC(=O)[C@H](CO)NC(=O)[C@H](CC(N)=O)NC(=O)[C@H](CC(C)C)NC(=O)[C@H](Cc1ccc(O)cc1)NC(=O)[C@H](CCCCN)NC(=O)[C@H](CCCCN)NC(=O)[C@@H](NC(=O)[C@H](C)NC(=O)[C@H](CCSC)NC(=O)[C@H](CCC(N)=O)NC(=O)[C@H](CCCCN)NC(=O)[C@H](CCCNC(=N)N)NC(=O)[C@H](CC(C)C)NC(=O)[C@H](CCCNC(=N)N)NC(=O)[C@@H](NC(=O)[C@H](Cc1ccc(O)cc1)NC(=O)[C@H](CC(N)=O)NC(=O)[C@H](CC(=O)O)NC(=O)[C@@H](NC(=O)[C@H](Cc1ccccc1)NC(=O)[C@@H](NC(=O)[C@H](C)NC(=O)[C@H](CC(=O)O)NC(=O)[C@H](CO)NC(=O)[C@@H](N)Cc1c[nH]cn1)C(C)C)[C@@H](C)O)[C@@H](C)O)C(C)C)C(=O)N[C@@H](CC(C)C)C(=O)N[C@@H](CC(N)=O)C(=O)NCC(=O)N[C@@H](CCCNC(=N)N)C(=O)N[C@@H](CCCCN)C(=O)N[C@@H](CCCCN)C(=O)N[C@@H](CCCNC(=N)N)C(=O)N[C@@H](CCCNC(=N)N)C(=O)N[C@@H](CCC(N)=O)C(=O)N[C@@H](CCCNC(=N)N)C(=O)N[C@@H](CCCNC(=N)N)C(=O)N[C@@H](CCCNC(=N)N)C(=O)N1CCC[C@H]1C(=O)N[C@@H](CCC(N)=O)C(=O)O [VIP-TAT]
- Efficiency of Traversing Eye to Retina (EtE) ([1]; FITC labeled peptides, eye drops 100 nmol/kg, retina separated 2 h after, fluorescence 495 nm excitation/520 nm emission, % of FITC labeled peptide mass in retina to total, means ± SEM of four experiments (7 rats per group)): 3.05 ± 0.58%
- EtE relative to the untagged peptide ([1]; PACAP-TAT/VIP-TAT vs PACAP/VIP, respectively, eye drops 100 nmol/kg, 2 h): about three-fold that of PACAP/VIP
- FITC fluorescence density per area unit in the retina ([1]; fluorescence microscopy of retina 2 h after eye drops of FITC labeled peptides (100 nmol/kg), vs PACAP/VIP): much higher than in retinas treated with eye drops of PACAP/VIP
- Activity on / affinity for PAC1 receptor relative to VIP [2]: higher activity on the activation of PACAP preferring PAC1receptor than VIP
- Activity on / affinity for PAC1 receptor relative to VIP ([2]; listed as VIP bound to TAT peptide): higher affinity for PAC1-R
